According to the NIST ThermoML archive (doi:10.1021/je060271a):
Several values for one entry are separate records, joined by “and”; a condition that tells them apart may be missing. Equal values may be shown once.

Details: Liquid, Vibrating tube method

CCCCCC(=O)OCC(COC(=O)CCCCC)(COC(=O)CCCCC)COC(=O)CCCCC [pentaerythritol tetrahexanoate]
Details | mass density
343.16 K, 33002 kPa | 980 kg/m3
343.16 K, 33028 kPa | 980.1 kg/m3
343.16 K, 33054 kPa | 980.2 kg/m3
343.16 K, 33085 kPa | 980.1 kg/m3
343.16 K, 33111 kPa | 980.2 kg/m3
343.16 K, 33138 kPa | 980.1 kg/m3
343.16 K, 33170 kPa | 980.2 kg/m3
343.16 K, 33198 kPa | 980.2 kg/m3
343.16 K, 33224 kPa | 980.2 kg/m3
343.16 K, 33250 kPa | 980.3 kg/m3
343.16 K, 33277 kPa | 980.2 kg/m3
343.16 K, 33310 kPa | 980 kg/m3
343.16 K, 33337 kPa | 980.3 kg/m3
343.16 K, 33364 kPa | 980.3 kg/m3
343.16 K, 33397 kPa | 980.3 kg/m3
343.16 K, 33424 kPa | 980.3 kg/m3
343.16 K, 33458 kPa | 980.4 kg/m3
343.16 K, 33486 kPa | 980.4 kg/m3
343.16 K, 33515 kPa | 980.2 kg/m3
343.16 K, 33551 kPa | 980.4 kg/m3
343.16 K, 33582 kPa | 980.5 kg/m3
343.16 K, 33613 kPa | 980.4 kg/m3
343.16 K, 33643 kPa | 980.7 kg/m3
343.16 K, 33678 kPa | 980.5 kg/m3
343.16 K, 33700 kPa | 980.5 kg/m3
343.16 K, 33718 kPa | 980.5 kg/m3
343.16 K, 33738 kPa | 980.5 kg/m3
343.16 K, 33761 kPa | 980.6 kg/m3
343.16 K, 33781 kPa | 980.6 kg/m3
343.16 K, 33806 kPa | 980.6 kg/m3
343.16 K, 33826 kPa | 980.6 kg/m3
343.16 K, 33846 kPa | 980.6 kg/m3
343.16 K, 33868 kPa | 980.6 kg/m3
343.16 K, 33883 kPa | 980.7 kg/m3
343.16 K, 33898 kPa | 980.7 kg/m3
343.16 K, 33914 kPa | 980.8 kg/m3
343.16 K, 33932 kPa | 980.6 kg/m3
343.16 K, 33948 kPa | 980.7 kg/m3
343.16 K, 33966 kPa | 980.7 kg/m3
343.16 K, 33982 kPa | 980.5 kg/m3
343.16 K, 33995 kPa | 980.7 kg/m3
343.16 K, 34005 kPa | 980.7 kg/m3
343.16 K, 34016 kPa | 980.8 kg/m3
343.16 K, 34026 kPa | 980.7 kg/m3
343.16 K, 34034 kPa | 980.8 kg/m3
343.16 K, 34035 kPa | 980.7 kg/m3
343.16 K, 34036 kPa | 980.8 kg/m3
343.16 K, 34037 kPa | 980.9 kg/m3 and 980.6 kg/m3
343.16 K, 34047 kPa | 980.7 kg/m3
343.16 K, 34048 kPa | 980.7 kg/m3
343.16 K, 34058 kPa | 980.8 kg/m3
343.16 K, 34091 kPa | 980.7 kg/m3
343.16 K, 34101 kPa | 980.8 kg/m3
343.16 K, 34114 kPa | 980.8 kg/m3
343.16 K, 34125 kPa | 980.7 kg/m3
343.16 K, 34137 kPa | 980.8 kg/m3
343.16 K, 34151 kPa | 980.7 kg/m3
343.16 K, 34163 kPa | 980.8 kg/m3
343.16 K, 34177 kPa | 980.7 kg/m3
343.16 K, 34189 kPa | 980.8 kg/m3
343.16 K, 34190 kPa | 980.9 kg/m3
343.16 K, 34198 kPa | 980.8 kg/m3
343.16 K, 34203 kPa | 980.8 kg/m3
343.16 K, 34211 kPa | 980.7 kg/m3
343.16 K, 34217 kPa | 980.8 kg/m3
343.16 K, 34223 kPa | 980.8 kg/m3
343.16 K, 34231 kPa | 980.7 kg/m3
343.16 K, 34237 kPa | 980.9 kg/m3
343.16 K, 34243 kPa | 980.7 kg/m3
343.16 K, 34248 kPa | 980.8 kg/m3
343.16 K, 34251 kPa | 980.9 kg/m3
343.16 K, 34253 kPa | 980.9 kg/m3
343.16 K, 34254 kPa | 980.8 kg/m3 and 980.9 kg/m3
343.16 K, 34255 kPa | 980.8 kg/m3 and 980.9 kg/m3
343.16 K, 34256 kPa | 980.8 kg/m3 and 980.9 kg/m3 and 980.7 kg/m3
343.16 K, 34257 kPa | 980.9 kg/m3
343.16 K, 34258 kPa | 980.8 kg/m3 and 980.7 kg/m3
343.16 K, 34259 kPa | 981 kg/m3
343.16 K, 34262 kPa | 980.9 kg/m3
343.16 K, 34263 kPa | 980.8 kg/m3 and 980.9 kg/m3
343.16 K, 34264 kPa | 980.9 kg/m3
343.16 K, 34265 kPa | 980.9 kg/m3 and 980.8 kg/m3
343.16 K, 34266 kPa | 980.8 kg/m3 and 980.9 kg/m3
343.16 K, 34267 kPa | 980.8 kg/m3 and 981 kg/m3 and 980.9 kg/m3
343.16 K, 34268 kPa | 980.8 kg/m3 and 980.9 kg/m3
343.16 K, 34269 kPa | 980.8 kg/m3 and 980.9 kg/m3
343.16 K, 34270 kPa | 980.9 kg/m3 and 980.8 kg/m3
343.16 K, 34271 kPa | 980.8 kg/m3
343.16 K, 34272 kPa | 981 kg/m3
343.16 K, 34273 kPa | 980.9 kg/m3
343.16 K, 34274 kPa | 980.9 kg/m3
343.16 K, 34275 kPa | 980.8 kg/m3
343.16 K, 34276 kPa | 980.9 kg/m3
343.16 K, 34277 kPa | 980.9 kg/m3
343.16 K, 34278 kPa | 980.9 kg/m3
343.16 K, 34279 kPa | 980.8 kg/m3
343.16 K, 34283 kPa | 980.9 kg/m3
343.16 K, 34284 kPa | 980.9 kg/m3 and 980.8 kg/m3 and 981 kg/m3
343.16 K, 34285 kPa | 980.9 kg/m3
343.16 K, 34286 kPa | 980.8 kg/m3
343.16 K, 34287 kPa | 980.9 kg/m3 and 981 kg/m3
343.16 K, 34288 kPa | 980.9 kg/m3
343.16 K, 34289 kPa | 980.9 kg/m3
343.16 K, 34290 kPa | 980.8 kg/m3 and 980.9 kg/m3
343.16 K, 34291 kPa | 980.9 kg/m3
343.16 K, 34292 kPa | 980.9 kg/m3
343.16 K, 34293 kPa | 980.9 kg/m3
343.16 K, 34294 kPa | 980.9 kg/m3
343.16 K, 34295 kPa | 980.8 kg/m3
343.16 K, 34296 kPa | 980.9 kg/m3
343.16 K, 34297 kPa | 980.9 kg/m3
343.16 K, 34298 kPa | 980.9 kg/m3 and 981 kg/m3
343.16 K, 34300 kPa | 980.9 kg/m3
343.16 K, 34301 kPa | 980.8 kg/m3
343.16 K, 34303 kPa | 980.9 kg/m3
343.16 K, 34305 kPa | 980.9 kg/m3
343.16 K, 34307 kPa | 980.9 kg/m3
343.16 K, 34310 kPa | 981 kg/m3
343.16 K, 34312 kPa | 980.8 kg/m3
343.16 K, 34315 kPa | 980.9 kg/m3
343.16 K, 34319 kPa | 980.9 kg/m3
343.16 K, 34322 kPa | 980.9 kg/m3
343.16 K, 34326 kPa | 980.9 kg/m3
343.16 K, 34332 kPa | 980.8 kg/m3
343.16 K, 34336 kPa | 980.8 kg/m3
343.16 K, 34342 kPa | 980.9 kg/m3
343.16 K, 34350 kPa | 980.9 kg/m3
343.16 K, 34356 kPa | 980.9 kg/m3
343.16 K, 34361 kPa | 980.9 kg/m3
343.16 K, 34363 kPa | 980.9 kg/m3
343.16 K, 34369 kPa | 981 kg/m3
343.17 K, 21206 kPa | 972.4 kg/m3
343.17 K, 30224 kPa | 978.4 kg/m3
343.17 K, 30254 kPa | 978.3 kg/m3
343.17 K, 30283 kPa | 978.4 kg/m3
343.17 K, 30312 kPa | 978.5 kg/m3
343.17 K, 30333 kPa | 978.4 kg/m3
343.17 K, 30358 kPa | 978.5 kg/m3
343.17 K, 30380 kPa | 978.5 kg/m3
343.17 K, 30402 kPa | 978.4 kg/m3
343.17 K, 30428 kPa | 978.5 kg/m3
343.17 K, 30449 kPa | 978.5 kg/m3
343.17 K, 30471 kPa | 978.6 kg/m3
343.17 K, 30497 kPa | 978.5 kg/m3
343.17 K, 31456 kPa | 979.2 kg/m3
